The test system of experiment [1] is L929 cells. Put plainly: Time profile of blocking TZ-induced necroptosis, FACS (7-AAD/Annexin V). It counts as cell-based, murine. The settings on record: L929, 10 ng/ml TNF-α + 25 μM zVAD (TZ), 24 h; primidone 1 mM, Nec-1s 25 μM; one representative experiment of three. How it is done:
The time profile of primidone for blocking cell death was compared to the one of Nec-1s. For this purpose, murine L929 cells were stimulated at 37° C. for 24 h with 10 ng/ml TNF-α+25 μM zVAD (TZ) in the presence of 1 mM primidone and 25 μM Nec-1s, respectively, for the indicated durations. Nec-1s and primidone were added 30 min before, 60 min and 180 min after the induction of RIPK1-mediated necroptosis, respectively. Cell death was quantified by FACS analysis using 7-amino-actinomycin D and phosphatidylserine accessibility (Annexin V staining) as markers.

A further experiment concerns the target T1, RIPK1 (Homo sapiens, UniProt Q13546).
T1 sequence (Q13546 1-671): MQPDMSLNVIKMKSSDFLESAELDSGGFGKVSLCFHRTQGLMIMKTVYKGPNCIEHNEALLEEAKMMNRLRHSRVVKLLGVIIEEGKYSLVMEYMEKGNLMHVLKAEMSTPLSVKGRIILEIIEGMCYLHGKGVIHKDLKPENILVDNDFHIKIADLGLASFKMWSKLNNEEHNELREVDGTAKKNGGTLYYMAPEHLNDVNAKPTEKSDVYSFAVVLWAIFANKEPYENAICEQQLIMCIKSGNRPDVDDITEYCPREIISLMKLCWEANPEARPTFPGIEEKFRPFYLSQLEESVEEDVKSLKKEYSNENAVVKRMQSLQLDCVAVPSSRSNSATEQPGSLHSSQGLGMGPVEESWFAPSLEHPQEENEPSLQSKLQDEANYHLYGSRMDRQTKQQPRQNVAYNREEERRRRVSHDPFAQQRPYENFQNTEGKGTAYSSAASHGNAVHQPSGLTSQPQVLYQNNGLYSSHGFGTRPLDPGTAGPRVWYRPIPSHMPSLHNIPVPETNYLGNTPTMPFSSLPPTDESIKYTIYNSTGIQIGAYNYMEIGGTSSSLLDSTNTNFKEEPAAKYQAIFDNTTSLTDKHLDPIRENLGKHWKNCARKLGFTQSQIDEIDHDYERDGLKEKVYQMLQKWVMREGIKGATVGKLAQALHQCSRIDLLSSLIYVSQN
The experiment can be described thus: KINOMEscan profiling kinase assay.

The subject of experiment [2] is L929 cells. The experiment can be described thus: Stimulation assay: TNF-α + 5Z-7 (± zVAD) induced RIPK1-dependent apoptosis/necroptosis. It is filed as cell-based, murine. The settings on record: primidone 1 mM, Nec-1s 20 μM; for Block of RIPK1-dependent apoptosis (RDA): L929, 10 ng/ml TNF-α + 1 μM 5Z-7, 24 h, zVAD 25 μM. How it is done:
Murine fibroblasts (L929 cells) were stimulated for 24 h at 37° C. in the presence of (a) vehicle, (b) 10 ng/ml tumor necrosis factor alpha (TNF-α), (c) 1 μM 5Z-7-oxozeaenol (5Z-7), (d) a combination of 10 ng/ml TNF-α and 1 μM 5Z-7, (e) a combination of 10 ng/ml TNF-α, 1 μM 5Z-7, and 20 μM necrostatin-1 (Nec-1s), (f) a combination of 10 ng/ml TNF-α, 1 μM 5Z-7, and 1 mM primidone (primidone is referred to in the Figures as compound A), (g) a combination of 10 ng/ml TNF-α, 1 μM 5Z-7, and 25 μM zVAD, (h) a combination of 10 ng/ml TNF-α, 1 μM 5Z-7, and 20 μM Nec-1s, and (i) a combination of 10 ng/ml TNF-α, 1 μM 5Z-7, 25 μM zVAD, and 1 mM primidone. TNF-α is a pro-inflammatory cytokine which triggers cell survival (canonical pathway) or cell death, depending on the cellular context. 5Z-7-oxozeaenol (5Z-7) is an inhibitor of transforming growth factor activated kinase 1 (TAK1). TAK1 is an intermediate in the signaling pathway of the TNF-receptor type 1 (TNFR1), and it is known that TAK1 is essential for the prevention of TNF-induced cell death. Cells in which TAK1 is disrupted or otherwise blocked are hypersensitive to TNF-α-induced cell death due to diminished prosurvival pathways including NF-κB and reduced antioxidant enzymes which results in activation of caspases. The compound zVAD is a pan-caspase inhibitor.

In experiment [3] the test system is L929 cells. Put plainly: TLR3-mediated cell death induced by poly (I:C) + zVAD. It counts as cell-based, murine. The note with it: L929, 1 μg/ml poly (I:C) + 25 μM zVAD, 24 h; primidone 1 mM, Nec-1s 20 μM. The source says:
Cell death was induced by activation of the Toll-like receptor 3 (TLR3). TLR3 is mainly expressed on immune cells, where it senses pathogen-associated molecular patterns and initiates innate immune response. The TLR3 agonist poly (I:C) was developed to mimic pathogens infection and boost immune system activation. In experimental models, poly (I:C) is known to induce regulated cell death in cells expressing TLR3. To examine whether primidone also blocks TLR3-mediated cell death, murine L929 cells were stimulated for 24 h at 37° C. with vehicle (a), 1 μg/ml of the TLR3 ligand poly (I:C) alone (b) or in combination with 25 μM zVAD (c). In addition, cells were stimulated with 1 μg/ml poly (I:C), 25 μM zVAD and 20 μM Nec-1s (d) and with 1 μg/ml poly (I:C), 25 μM zVAD and 1 mM primidone (e).

Experiment [4] concerns L929 cells. The experiment can be described thus: TZ-induced RIPK1-dependent necroptosis, metabolites. The note with it: L929, 10 ng/ml TNF-α + 25 μM zVAD, 24 h; 1 mM PEMA or PB. It is filed as cell-based, murine. How it is done: Murine fibroblasts (L929 cells) were incubated for 24 h at 37° C. in the presence of (a) vehicle, (b) 1 mM PEMA or PB, respectively, (c) a combination of 10 ng/ml TNF-α+25 μM zVAD (TZ), and (d) a combination of TZ+PEMA or TZ+PB, respectively.

In the next experiment the test system is Jurkat cells. The experiment can be described thus: Anti-Fas antibody induced RIPK1-independent apoptosis. It is filed as cell-based, human. The note with it: 5 ng/ml anti-Fas antibody, 5 h, zVAD 25 μM, primidone 1 mM. How it is done: To this end, human T cells (Jurkat cells) were incubated for 5 h at 37° C. in the presence of (a) vehicle, (b) 5 ng/ml anti-Fas antibody, (c) 5 ng/ml anti-Fas antibody in combination with 25 μM of the pan-caspase inhibitor zVAD, and (d) 5 ng/ml anti-Fas antibody in combination with 1 mM primidone. The addition of the anti-Fas antibody induces apoptosis, a caspase-dependent form of regulated cell death that can be inhibited by the addition of the pan-caspase inhibitor zVAD.

Consider four molecules from patent publication US20220331322A1, “COMPOUND FOR INHIBITING CELL DEATH” (Christian-Albrechts-Universität zu Kiel, priority 2019, published 2022).

Where a SMILES comes first, the peptide text is derived from it. The star is where a group is joined. Cbz = O=C(OCc1ccccc1)*; CH2F = FC*

As for `CN1C(=O)NC(Cc2c[nH]c3c(Cl)cccc23)C1=O` (stereo not shown) [Nec-1s], in the experiment on L929 cells [1], the “Cells still alive, compound added 60 min after induction of cell death” value amounted to 85.0% and the “Cells still alive, compound added 3 hours after induction of cell death” value is recorded as 16.3%. Moreover, the “Binding to RIPK1 kinase domain (prevention of kinase binding to immobilized ligand)” value on RIPK1 is on record as “prevents the kinase from binding to an immobilized ligand”. The “Block of RIPK1-dependent necroptosis” value with L929 cells [2] (L929, 10 ng/ml TNF-α + 1 μM 5Z-7 + 25 μM zVAD, 24 h) is “prevents RIPK-1 dependent cell death”. In the experiment on L929 cells [2], the “Block of RIPK1-dependent apoptosis (RDA)” value is listed as “can be blocked”. In addition, the “Protection from RIPK1-mediated cell death induced by poly (I:C) and zVAD” value in the experiment with L929 cells [3] is recorded as “effectively protect cells”.

Take `CCC1(c2ccccc2)C(=O)NC(=O)NC1=O` [PB, 5-Ethyl-5-phenyl-1,3-diazinane-2,4,6-trione]: in the experiment on L929 cells [4], the “Block of TZ-induced RIPK1-dependent cell death (necroptosis)” value was “can be blocked”.

On to `CCC(C(N)=O)(C(N)=O)c1ccccc1` [PEMA, 2-Ethyl-2-phenylmalonamide], for which, in the experiment on L929 cells [4], the “Block of TZ-induced RIPK1-dependent cell death (necroptosis)” value is “can be blocked”.

Take `CC(NC(=O)C(NC(=O)OCc1ccccc1)C(C)C)C(=O)NC(CC(=O)O)C(=O)CF` (stereo not drawn) [zVAD] (Cbz-Val-Ala-Asp-CH2F; configuration not given here): the “Block of RIPK1-dependent apoptosis (RDA)” value in the experiment on L929 cells [2] is “cell death occurs”. Also, in the experiment with Jurkat cells, the “Inhibition of anti-Fas antibody induced cell death (caspase-dependent, RIPK1-independent)” value is on record as “completely blocked”.
